The numbers were not newly measured in patent publication US20250205268A1, “TREATMENT OF VIRUSES WITH ANTIVIRAL NUCLEOSIDES” (priority 2021, published 2025), which cites them from elsewhere.

For this series, the system named is pestivirus and hepacivirus. To be noted: […] CHEMOTHER, 2003, 47 (1): 244-54; cited from earlier work.

In the case of `O=c1nc(NO)ccn1[C@@H]1O[C@H](CO)[C@@H](O)[C@H]1O` [β-D-N(4)-hydroxycytidine, 1-((2R,3R,4S,5R)-3,4-dihydroxy-5-(hydroxymethyl)tetrahydrofuran-2-yl)-4-(hydroxyamino)pyrimidin-2 (1H)-one], the antiviral activities entry is “antipestivirus and antihepacivirus activities”.
